Assay [1] concerns Abutilon theophrasti (ABUTH). The assay is described as follows: Greenhouse postemergence weed control, percent injury vs untreated control. Type of assay: in vivo. From the text:
(§1) For post-emergence treatments, glufosinate and trifludimoxazin, which had been suspended in water, were applied using spray nozzles providing fine to coarse droplets.
(§2) The herbicide compounds applied in the examples were used as experimental or commercially available solo or premix formulations which have been diluted with tap water to a suitable concentration. Glufosinate was used as a commercial SL formulation containing 280 g ai/l of glufosinate (Liberty 280 SL, BASF). While the PPO herbicide Vulcarus containing 500 g ai/l trifludimoxazin was used (Vulcarus 500 SC, BASF) formulation.
(§3) The evaluation for plant injury or damage caused by the chemical compositions was carried out using a scale from 0-100% when compared with the untreated control plants. Here, 0 means no damage and 100 means complete destruction of the plants.
(§4) 22., E=X+Y−(X*Y/100), where
(§5) X=effect in percent using herbicide A at an application rate of a;
(§6) Y=effect in percent using herbicide B at an application rate of b;
(§7) E=expected effect (in %) of A+B at application rates a+b.
(§8) The value E corresponds to the effect (plant damage or injury) which is to be expected if the activity of the individual compounds is just additive. If the observed effect is higher than the value E calculated according to Colby, a synergistic effect is present.
(§9) Weed Control of Glufosinate Plus Trifludimoxazin Mixtures (Greenhouse) Seedlings of velvetleaf (Abutilon theophrasti; ABUTH) and Palmer amaranth (Amaranthus palmeri; AMAPA were treated with postemergence applications of either glufosinate at 246 g ai/ha, trifludimoxazin at 6.25 g ai/ha, or the combination of glufosinate (246 g ai/ha) and trifludimoxazin (6.25 g ai/ha), respectively, when they were 5-10 cm in height. All glufosinate treatments contained 1% (w/v) ammonium sulfate and solo trifludimoxazin treatments contained 1% (w/v) ammonium sulfate plus 1% (v/v) MSO surfactant. Plants were placed in a completely randomized design with four replications per treatment. Percent injury data was collected 21 days after treatment (DAT).

The subject of assay [2] is Amaranthus palmeri (AMAPA). The assay is described as above. Type of assay: in vivo.
Source text: as §1, §2, §3, §4, §5, §6, §7, §8, §9

Each structure is given as a SMILES string.

Take `C#CCN1C(=O)C(F)(F)Oc2cc(F)c(-n3c(=O)n(C)c(=S)n(C)c3=O)cc21` [Trifludimoxazin]: the “Solo Trifludimoxazin (6.25 g ai/ha) % activity” value in assay [1] (ABUTH seedlings 5-10 cm, postemergence, 6.25 g ai/ha, 1% ammonium sulfate plus 1% MSO, 21 DAT) is recorded as 70%; in assay [2] (AMAPA seedlings 5-10 cm, postemergence, 6.25 g ai/ha, 1% ammonium sulfate plus 1% MSO, 21 DAT), 63%.

Turning to `CP(=O)(O)CCC(N)C(=O)O` (racemic) [Glufosinate, (2RS)-2-amino-4-[hydroxy(methyl)phosphinoyl]butyric acid], the inhibition at 246 g/ha amounted to 23% in assay [1] (Abutilon theophrasti, post-emergence, 504 h, read-out: Solo Glufosinate (246 g ai/ha) % activity) and 48% in assay [2] (Amaranthus palmeri, post-emergence, 504 h, read-out: Solo Glufosinate (246 g ai/ha) % activity).

For the origin of these results see US20230068414A1, “Herbicide combinations comprising glufosinate and trifludimoxazin” (BASF SE, priority 2020, published 2023).
